The results in this text go back to patent US20260199497A1, “GLUCOCORTICOID RECEPTOR AGONIST AND CONJUGATE THEREOF” (priority 2023, published 2026).

pEC50, pIC50: −log10 of the molar value.

Format in all cases: cell-based
Assay [1] concerns the target T1, glucocorticoid receptor (Homo sapiens, UniProt P04150).
T1 sequence (P04150 524-777 limits assumed): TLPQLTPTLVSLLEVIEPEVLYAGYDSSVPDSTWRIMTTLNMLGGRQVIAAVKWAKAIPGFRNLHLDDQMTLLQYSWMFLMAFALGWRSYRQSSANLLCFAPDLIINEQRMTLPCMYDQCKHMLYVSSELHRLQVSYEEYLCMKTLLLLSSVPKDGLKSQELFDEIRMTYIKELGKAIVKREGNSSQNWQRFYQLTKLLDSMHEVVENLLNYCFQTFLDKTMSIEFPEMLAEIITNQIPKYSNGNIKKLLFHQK
The assay is described as follows: GRE reporter gene test (Experiment Example 1), HEK293T cells transfected with pGL4.35 and p-Bind GR Vector. To be noted: for pEC50: GRE reporter gene, HEK293T cells, 18-20 h incubation; for Emax: HEK-293T; for maximum agonistic effect (Emax): compared with dexamethasone, transfected HEK293T cells. How it is done:
The compound of the present invention to be tested was formulated into a 10 mM solution with DMSO, and then subjected to 4-fold dilution at 10 concentration points using DMSO to obtain a 1000× mother liquor, with a final test concentration of 0.000038-10 μM.
(§1) HEK293T cells (ATCC) were plated in a 100 mm culture dish at a density of 6*10^6 cells/culture dish, and cultured for 16 h under the conditions of 37° C. and 5% CO2. Plasmids (pGL4.35 [luc2P/9XGAL4 UAS/Hygro], p-Bind GR Vector, Promega) and Lipofectamine® 3000 (Invitrogen) were mixed, added into the culture dish, and then incubated for 5-6 h under the conditions of 37° C. and 5% CO2.
In a 384-well plate (PerkinElmer), 25 nL of the compound mother liquor was added, and then HEK293T cells transfected with plasmids were added at a density of 18000 cells/well. The cells were incubated for 18-20 h under the conditions of 37° C. and 5% CO2.
After the incubation was ended, 25 μL of britelite plus luciferase assay reagent (PerkinElmer) was added, and then reading was performed using an Envision 2105 multiplate reader (PerkinElmer).
(§2) The activity was calculated using the following formula, % activity=100*(signal of compound well−average signal of negative control well)/(average signal of positive control well−average signal of negative control well). […] Fitting calculation of EC50 was performed on % activity and the logarithmic concentration of the compound using Graphpad 8.0, Y=Bottom+(Top−Bottom)/(1+10^((Log EC50−X)*HillSlope)), wherein Y is % activity, and X is the logarithmic concentration of the compound.
(A reporter such as luciferase makes a cellular process visible.)

The test system of a further assay is mouse B cells. The assay is described as follows: In vitro inhibition of the proliferation of mouse B cells by the glucocorticoid. The following applies: 4 days; for pIC50: B-cell, 96 h, LPS 5 μg/ml stimulated mouse spleen B cells, live cells by flow cytometry; for in-vitro inhibitory activity on the proliferation of mouse B cells: LPS 5 μg/ml, ranking of the compounds. How it is done: According to instructions of the EasySEP mouse panB cell sorting kit (Stemcell/1984/1×100e9 cells), B cells were isolated from mouse spleen cells. After obtaining the B cells, they were resuspended in complete medium (1640+10% FBS+50 uM β-mercaptoethanol), and added to a 96-well cell culture plate at 1E5 cells/100 μL per well. 4×LPS (20 μg/ml) was prepared, and add to the plated cells at 50 μL per well, with a final concentration of 5 μg/ml. The glucocorticoid was diluted with complete medium in a 5-fold gradient, starting at a final concentration of 20 nM, and added to the plated cells at 50 μL per well. The cells were incubated in a 37° C. cell culture incubator for 4 days. Then PI was added to the cells for dead cell staining, and the number of live cells was detected by flow cytometry. The cell viability was calculated using the number of live cells in the untreated wells as the denominator. The cell viability values was imported into the GraphPad Prism 8 software to calculate IC50. The structure of the comparative compound 1 is as follows: […]
A general note: In flow cytometry, cells or beads pass a laser one at a time.

Assay [2] deals with T2, glucocorticoid receptor (Homo sapiens, UniProt P04150).
T2 sequence (P04150 1-777): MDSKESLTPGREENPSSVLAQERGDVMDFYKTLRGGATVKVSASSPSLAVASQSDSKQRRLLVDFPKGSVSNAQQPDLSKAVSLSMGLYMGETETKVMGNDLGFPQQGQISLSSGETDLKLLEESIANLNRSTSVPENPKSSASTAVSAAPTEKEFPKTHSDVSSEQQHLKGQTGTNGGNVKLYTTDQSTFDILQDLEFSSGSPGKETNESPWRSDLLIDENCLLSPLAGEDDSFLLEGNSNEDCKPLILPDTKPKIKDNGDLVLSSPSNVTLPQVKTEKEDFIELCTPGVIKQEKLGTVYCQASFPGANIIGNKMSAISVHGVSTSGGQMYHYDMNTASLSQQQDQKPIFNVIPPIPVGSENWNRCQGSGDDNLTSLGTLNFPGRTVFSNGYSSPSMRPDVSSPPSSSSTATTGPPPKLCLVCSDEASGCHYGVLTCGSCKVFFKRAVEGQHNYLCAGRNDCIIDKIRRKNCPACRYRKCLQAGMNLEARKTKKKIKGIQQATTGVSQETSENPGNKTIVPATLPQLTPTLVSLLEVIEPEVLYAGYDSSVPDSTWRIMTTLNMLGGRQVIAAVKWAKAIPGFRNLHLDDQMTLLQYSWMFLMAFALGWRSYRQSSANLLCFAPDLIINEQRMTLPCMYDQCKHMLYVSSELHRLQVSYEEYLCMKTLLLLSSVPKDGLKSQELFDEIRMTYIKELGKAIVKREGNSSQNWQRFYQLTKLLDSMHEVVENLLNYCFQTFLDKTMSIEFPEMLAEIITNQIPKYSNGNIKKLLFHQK
The assay is described as follows: In vitro activation activity of the glucocorticoid on the glucocorticoid receptor in Hela-MMTV luciferase reporter cells. The following applies: 48 hours; for in vitro activation activity on the glucocorticoid receptor in the cells: Hela-MMTV cells, compared with comparative compound 1; for pEC50: Hela-MMTV luciferase reporter cells. On the procedure:
The activation activity of the glucocorticoid on glucocorticoid receptor was tested in the constructed Hela-MMTV luciferase reporter system cells. Adherent Hela-MMTV cells were digested using a Trypsin-EDTA (0.25%) solution, counted, and the cells in a required number were resuspended in complete medium (1640+10% FBS). The cells were then plated in a 96-well cell culture plate at 10,000 cells/100 μl. The glucocorticoid was diluted in complete medium, starting at a final concentration of 75 nM, followed by 5-fold gradient dilution, and was added to the plated cells at 100 μl per well. The cells were incubated in a cell culture incubator at 37° C. for 48 hours. Then Bio-Lite luciferase assay reagent (Vazyme DD1201-03) was added to the cells at 20 μl per well, followed by homogeneously shaking for 10 minutes, and luminescence readings were obtained using a microplate reader. The data were imported into GraphPad Prism 8 software to calculate the EC50 value.

Assay [3] has as its target T1, glucocorticoid receptor. Put plainly: GRE reporter gene test (Experiment Example 2), HEK293T cells transfected with pGL4.35 and p-Bind GR Vector. The following applies: for pEC50: GRE reporter gene, HEK293T cells, 18-20 h incubation; for Emax: HEK-293T. How it is done: The compound of the present invention to be tested was formulated into a 1 mM solution with DMSO, and then subjected to 4-fold dilution at 10 concentration points using DMSO to obtain a 1000× mother liquor, with a final test concentration of 0.0000038-1 μM.
as §1
In a 384-well plate (PerkinElmer), 25 nL of the compound mother liquor was added, and then HEK293T cells transfected with plasmids were added at a density of 18000 cells/well (25 μL). The cells were incubated for 18-20 h under the conditions of 37° C. and 5% CO2.
After the incubation was ended, 25 μL of britelite plus luciferase assay reagent (PerkinElmer) was added, and then reading was performed using an Envision 2105 multimode reader (PerkinElmer).
as §2

Broadly, the pEC50 is −log10 of the EC50, conventionally taken in molar units. Higher therefore signals a low EC50. One may read the Emax as the maximal effect, on the per cent scale that the assay sets. One may read the pIC50 as the IC50 on a negative log10 scale, so that one unit is a factor of ten. Take `C[C@]12C=CC(=O)C=C1[C@@H](F)C[C@H]1[C@@H]3CC[C@](OC(=O)c4ccc(F)c(N)c4)(C(=O)SCF)[C@@]3(C)C[C@H](O)[C@@]12F` [A-1]: at glucocorticoid receptor [1], the pEC50 was 9.70 and the “maximum agonistic effect (Emax)” value is given as “superior to dexamethasone”. Further, at glucocorticoid receptor [1] (read-out: Emax), the Emax was determined as 102%. Moreover, in the assay on mouse B cells, the pIC50 is 10.49 and the “in-vitro inhibitory activity on the proliferation of mouse B cells” value is listed as “most strongest inhibitory activity”. For the same compound, at glucocorticoid receptor [2], the “in vitro activation activity on the glucocorticoid receptor in the cells” value is reported as “superior to comparative compound 1” and the pEC50 was 11.01.
Take `C[C@H](O)CC(=O)O[C@]1(C(=O)SCF)[C@H](C)C[C@H]2[C@@H]3C[C@H](F)C4=CC(=O)C=C[C@]4(C)[C@@]3(F)[C@@H](O)C[C@@]21C` [D-15, (6S,8S,9R,10S,11S,13S,14S,16R,17R)-6,9-difluoro-17-(((fluoromethyl)thio)carbonyl)-11-hydroxy-10,13,16-trimethyl-3-oxo-6,7,8,9,10,11,12,13,14,15,16,17-dodecahydro-3H-cyclopenta[a]phenanthren-17-yl (S)-3-hydroxybutyrate]: on glucocorticoid receptor [3], the pEC50 was 8.85 and the Emax was determined as 102%. On glucocorticoid receptor [2], this compound showed a pEC50 of 10.13.
Consider `C[C@H]1C[C@@]2(C)[C@@H](C[C@H]3O[C@@H](c4ccc(Cc5cccc(N)c5)cc4)O[C@]32C(=O)CO)[C@@H]2CCC3=CC(=O)C=C[C@]3(C)[C@H]21` [Comparative example 1], for which the negative-log IC50 (pIC50) with mouse B cells was 9.08.
Regarding `C[C@H]1C[C@@]2(C)[C@@H](C[C@H]3O[C@@H](c4ccc(Cc5cccc(N)c5)cc4)O[C@]32C(=O)CO)[C@@H]2CCC3=CC(=O)C=C[C@]3(C)[C@H]21` [comparative compound 1, reference compound], the “in-vitro inhibitory activity on the proliferation of mouse B cells” value in the assay with mouse B cells is “relatively the weakest inhibitory activity”. At glucocorticoid receptor [2], the pEC50 is 9.02.
`C[C@@H]1C[C@H]2[C@@H]3C[C@H](F)C4=CC(=O)C=C[C@]4(C)[C@@]3(F)[C@@H](O)C[C@]2(C)[C@@]1(OC(=O)CCO)C(=O)SCF` [D-5]: on glucocorticoid receptor [3], the negative-log EC50 (pEC50) was 8.89 and the Emax was 132%. Also, the “maximum agonistic activity (Emax)” value at glucocorticoid receptor [3] (compared with dexamethasone, transfected HEK293T cells) was “superior to dexamethasone”. In the assay with mouse B cells, this compound gave a pIC50 of 9.51. For the same compound, at glucocorticoid receptor [2], the “in vitro activation activity on the glucocorticoid receptor in the cells” value is listed as “superior to comparative compound 1” and the pEC50 is 9.81.
In the case of `C[C@@H]1C[C@H]2[C@@H]3CCC4=CC(=O)C=C[C@]4(C)[C@@]3(F)[C@@H](O)C[C@]2(C)[C@@]1(O)C(=O)CO` [Dexamethasone, reference compound], the Emax worked out at 100% on glucocorticoid receptor [1] and 98.3% at glucocorticoid receptor [3].
For the compound `C[C@@H]1C[C@H]2[C@@H]3C[C@H](F)C4=CC(=O)C=C[C@]4(C)[C@@]3(F)[C@@H](O)C[C@]2(C)[C@@]1(OC(=O)c1ccc(F)c(N)c1)C(=O)OCCl` [O-3, chloromethyl (6S,8S,9R,10S,11S,13S,14S,16R,17R)-17-((3-amino-4-fluorobenzoyl)oxy)-6,9-difluoro-11-hydroxy-10,13,16-trimethyl-3-oxo-6,7,8,9,10,11,12,13,14,15,16,17-dodecahydro-3H-cyclopenta[a]phenanthrene-17-carboxylate], at glucocorticoid receptor [1], the pEC50 is 9.40. The Emax at glucocorticoid receptor [1] (read-out: Emax) is 87.7%.
Turning to `C[C@@H]1C[C@H]2[C@@H]3C[C@H](F)C4=CC(=O)C=C[C@]4(C)[C@@]3(F)[C@@H](O)C[C@]2(C)[C@@]1(OC(=O)c1ccc(F)cc1)C(=O)SCF` [H-5], on glucocorticoid receptor [1], the pEC50 is 9.80 and the “maximum agonistic effect (Emax)” value is listed as “superior to dexamethasone”. For the same compound, the Emax at glucocorticoid receptor [1] (read-out: Emax) was 107%.
Turning to `C[C@@H]1C[C@H]2[C@@H]3C[C@H](F)C4=CC(=O)C=C[C@]4(C)[C@@]3(F)[C@@H](O)C[C@]2(C)[C@@]1(OC(=O)c1cccc(O)c1)C(=O)SCF` [B-1], at glucocorticoid receptor [1], the pEC50 was 9.72 and the “maximum agonistic effect (Emax)” value is “superior to dexamethasone”. At glucocorticoid receptor [1] (read-out: Emax), the maximal effect (Emax) was 105%.
The like results for `C[C@@H]1C[C@H]2[C@@H]3C[C@H](F)C4=CC(=O)C=C[C@]4(C)[C@@]3(F)[C@@H](O)C[C@]2(C)[C@@]1(OC(=O)c1ccccc1)C(=O)SCF` [H-1, (6S,8S,9R,10S,11S,13S,14S,16R,17R)-6,9-difluoro-17-((fluoromethyl)thio)carbonyl)-11-hydroxy-10,13,16-trimethyl-3-oxo-6,7,8,9,10,11,12,13,14,15,16,17-dodecahydro-3H-cyclopenta[a]phenanthren-17-yl benzoate] were, in that order, 9.74, “superior to dexamethasone” and 110%.
